Values of other authors in patent US9782432B2, “Polymers and methods thereof for wound healing” (RUTGERS, THE STATE UNIVERSITY OF NEW JERSEY, priority 2012, dated 2017).
Where two headings read alike, the source gives them in different places.

Experiments:
[1] = test system: adhesions; settings: 5 mg/kg/day intramuscularly, 7 days
[2] = test system: adhesions; settings: 0.35, 0.7 or 1.4 mg every 6 hours for 48 or 96 hours
[3] = test system: adhesions
[4] = test system: adhesion formation; settings: rats with intact pineal glands, injections of melatonin
[5] = test system: adhesion formation; settings: rats, IP injection
[6] = test system: adhesion formation; settings: dog, IP injection
[7] = test system: adhesions; settings: IP injections, rat model
[8] = test system: adhesion formation

O=C(O)COC(=O)Cc1ccccc1Nc1c(Cl)cccc1Cl [aceclofenac]
decrease in fibroblasts at the injury site [1]: 8% | fibrous area, treatment vs control group [1]: significant difference

CC(=O)Oc1ccccc1C(=O)O [aspirin, acetylsalicylic acid]
adhesions vs untreated control [2]: no group was significantly different from the untreated control | adhesion rate ([3]; 1.7 mg/kg/day for 5 days after surgery): 44% | adhesion rate ([3]; 28.0 mg/kg/day for 5 days after surgery): 77%

COc1ccc2[nH]cc(CCNC(C)=O)c2c1 [melatonin]
adhesions vs control [4]: significantly less adhesions than the control | adhesion formation [5]: significantly reduce abdominal adhesion formation | adhesion formation [6]: significantly reduce adhesion formation

vitamin E
efficacy compared with Seprafilm [7]: as effective as Seprafilm | reduction of adhesion formation ([8]; IP injection): 80% | reduction of adhesion formation ([8]; oral or intramuscular administration): not when administered orally or intramuscularly | abdominal adhesion formation ([8]; rats, injected intraperitoneally): significantly reduce abdominal adhesion formation
